Values joined by “and” are separate entries in the source; they are usually repeats but may differ in a detail not shown here. Equal entries are not always repeated.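 Method: 48-hour compound exposure of cells in 96-well plates, five concentrations, linear interpolation of endpoints. The concentration for 50% growth inhibition is given as GI50. TGI: concentration producing complete growth inhibition.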

Among the test systems are BT-549 breast; CAKI-1 renal; A498 renal; A549 NSCLC; PC-3 prostate; HOP-92 NSCLC; LOX IMVI melanoma; K-562 leukemia; SNB-19 CNS; CCRF-CEM leukemia.
Common to all, as to assay: growth of human tumour cells (NCI), 48 h

In the case of `Cc1cc(I)cc(CN(C)CCCN2CCC(C)CC2)c1O`, the GI50 is 11.2 µM in the test on BT-549 breast; 13.5 µM in the test on CAKI-1 renal; 7.53 µM with A498 renal; 15.4 µM in the test on A549 NSCLC; 14.1 µM in the test with PC-3 prostate; 6.62 µM with HOP-92 NSCLC. The GI50 in the test on LOX IMVI melanoma was 15.5 µM; in the test with K-562 leukemia it was 10.9 µM; in the test on SNB-19 CNS, 16.4 µM. Further, the TGI stood at 23.8 µM in the test on BT-549 breast; 28.7 µM in the test on CAKI-1 renal; 21.2 µM in the test with A498 renal; 29.6 µM in the test with A549 NSCLC; 29.7 µM with PC-3 prostate; 21.5 µM with HOP-92 NSCLC. Also, the TGI in the test on LOX IMVI melanoma turned out to be 31.4 µM; in the test with K-562 leukemia, 35.7 µM; with SNB-19 CNS, 34 µM.
Regarding `COc1cc(C2c3cc4c(cc3[C@@H](NC3CCN(Cc5ccccc5)CC3)C3COC(=O)[C@H]23)OCO4)cc(OC)c1O` (some centres undefined), the TGI in the test on CCRF-CEM leukemia is 0.232 µM and 0.12 µM; with CAKI-1 renal, 0.694 µM and 2 µM; in the test with A498 renal, 0.498 µM; with A549 NSCLC it was 0.178 µM; in the test with HOP-92 NSCLC, 0.73 µM and 0.0934 µM; with LOX IMVI melanoma, 1.18 µM and 0.231 µM. Besides, the TGI with K-562 leukemia is 12.8 µM and 2.84 µM; with SNB-19 CNS, 22.4 µM and 2.94 µM. Moreover, the GI50 in the test with CAKI-1 renal is 0.0372 µM and 0.277 µM; with HOP-92 NSCLC, 0.143 µM and 0.026 µM; in the test on LOX IMVI melanoma it was 0.145 µM and 0.0349 µM; in the test with K-562 leukemia, 0.266 µM and 0.122 µM.
In the case of `O=C(Nc1ccc(Br)c2ccccc12)c1ccc2ccccc2c1O`, the TGI in the test with BT-549 breast is 11.3 µM; in the test on CCRF-CEM leukemia it was over 100 µM; with CAKI-1 renal, 25.2 µM; in the test on A498 renal, 30.8 µM; with A549 NSCLC it was 11 µM; with PC-3 prostate, 6.21 µM. Moreover, the TGI in the test with K-562 leukemia and in the test with SNB-19 CNS was over 100 µM throughout.
For the compound `COc1ccc(C(=O)/C=C/c2ccc(OCc3cccc(C(F)(F)F)c3)c(OC)c2)cc1OC`, the GI50 is 38.1 µM in the test with BT-549 breast; 38.8 µM in the test with CCRF-CEM leukemia; 207 µM in the test with A498 renal; 67.7 µM with A549 NSCLC; 61.4 µM in the test on PC-3 prostate; 142 µM in the test on HOP-92 NSCLC. Further, the figures for the GI50 in the test on LOX IMVI melanoma and in the test with SNB-19 CNS were 32.8 µM and 78.9 µM, respectively. In addition, the TGI in the test with BT-549 breast was 476 µM; in the test on CCRF-CEM leukemia it was over 1000 µM; with A498 renal, over 1000 µM; in the test on A549 NSCLC, over 1000 µM; with PC-3 prostate, over 1000 µM; in the test on HOP-92 NSCLC it was over 1000 µM. Also, the TGI with LOX IMVI melanoma and in the test with SNB-19 CNS was over 1000 µM each time.
On to `CC(=O)C(CN1C(=O)c2ccccc2C1=O)C(C)=O`, for which the TGI in the test with BT-549 breast, with CAKI-1 renal, in the test on A498 renal, in the test on A549 NSCLC, with PC-3 prostate and in the test on HOP-92 NSCLC was over 100 µM in each case. Further, the TGI in the test with K-562 leukemia and in the test with SNB-19 CNS was over 100 µM each time.
Take `COc1ccc2c3ccnc(C(F)(F)F)c3n(CCCCN)c2c1`: the GI50 is 3.04 µM in the test on BT-549 breast; 9.02 µM in the test on CCRF-CEM leukemia; 4.66 µM in the test with CAKI-1 renal; 5.25 µM in the test with A498 renal; 11.6 µM in the test with A549 NSCLC; 1.96 µM in the test on PC-3 prostate. For the same compound, the GI50 is 4.38 µM in the test on LOX IMVI melanoma, 5.73 µM with K-562 leukemia and 12.2 µM in the test with SNB-19 CNS. Also, the TGI in the test with BT-549 breast came out at 12.5 µM; with CCRF-CEM leukemia it was 47.8 µM; in the test with CAKI-1 renal, 21.4 µM; with A498 renal, 18 µM; in the test with A549 NSCLC it was 26.3 µM; with PC-3 prostate, 13.9 µM. The TGI is 17 µM in the test with LOX IMVI melanoma, 22.8 µM with K-562 leukemia and 30.7 µM in the test on SNB-19 CNS.
Take `[N-]=[N+]=C(C(=O)CN1CCCC1=O)S(=O)(=O)c1ccccc1`: the TGI with BT-549 breast, in the test on CCRF-CEM leukemia, in the test with A549 NSCLC, with PC-3 prostate, in the test on LOX IMVI melanoma and in the test on K-562 leukemia was over 100 µM each time. Besides, the TGI in the test with SNB-19 CNS was over 100 µM.
As for `Cc1cc(-c2ccccc2)nc(Nc2cc3ccccc3[nH]2)n1`, the TGI with CCRF-CEM leukemia, with CAKI-1 renal, in the test with A498 renal, in the test with A549 NSCLC, with HOP-92 NSCLC and in the test with LOX IMVI melanoma was over 100 µM throughout. Besides, the TGI with K-562 leukemia and with SNB-19 CNS was over 100 µM each time.
Consider `CN1C(=O)N(C)C2C1NC(=S)N2/N=C/C=C/c1ccccc1[N+](=O)[O-]` (centres undefined), for which the GI50 with BT-549 breast is 3.34 µM; in the test on CCRF-CEM leukemia, 0.822 µM; in the test on CAKI-1 renal it was 1.46 µM; in the test with A498 renal, 0.513 µM; in the test with A549 NSCLC, 2.15 µM; in the test with PC-3 prostate it was 0.967 µM. Further, the GI50 was 57.7 µM with HOP-92 NSCLC, 0.87 µM in the test on LOX IMVI melanoma and 0.952 µM in the test with SNB-19 CNS. Moreover, the TGI in the test on BT-549 breast is over 100 µM; in the test with CCRF-CEM leukemia it was over 100 µM; in the test on CAKI-1 renal it was over 100 µM; in the test on A498 renal it was 7.26 µM; with A549 NSCLC it was over 100 µM; in the test with PC-3 prostate, over 100 µM. The TGI with HOP-92 NSCLC, in the test on LOX IMVI melanoma and in the test on SNB-19 CNS was over 100 µM throughout.
Regarding `CCCCCCC(=O)NC1=C(N2CC2)C(=O)C(NC(=O)CCCCCC)=C(N2CC2)C1=O`, the GI50 is 31.3 µM in the test on BT-549 breast; 4.32 µM with CCRF-CEM leukemia; 1.93 µM with CAKI-1 renal; 2.62 µM in the test with A498 renal; 2.79 µM with A549 NSCLC; 1.61 µM in the test with PC-3 prostate. The figures for the GI50 in the test with LOX IMVI melanoma and in the test on SNB-19 CNS were 3.03 µM and 12.9 µM, respectively. Further, the TGI in the test on BT-549 breast, in the test on CCRF-CEM leukemia, with CAKI-1 renal, with A498 renal, in the test with A549 NSCLC and with PC-3 prostate was over 100 µM throughout. Moreover, the TGI in the test on LOX IMVI melanoma and in the test on SNB-19 CNS was over 100 µM throughout.

The values are drawn from PubChem BioAssay (NCI).
